Data reported in patent US6215002A, “Pyrrolopyrrolone derivatives as inhibitors of neutrophil elastase” (priority 1996, dated 2001).

How the values were obtained:
[1] = molecular target: T1, human neutrophil elastase (Homo sapiens, UniProt P08246); test: In vitro assay of human neutrophil elastase (HNE); assay type: biochemical; conditions: 118 nM purified human neutrophil elastase, pH 8.6, 15 min incubation at 30° C., MeO-succinyl-alanyl-alanyl-prolyl-valyl-p-nitroanilide substrate; read-out: HNE IC50
T1 sequence (P08246 30-267): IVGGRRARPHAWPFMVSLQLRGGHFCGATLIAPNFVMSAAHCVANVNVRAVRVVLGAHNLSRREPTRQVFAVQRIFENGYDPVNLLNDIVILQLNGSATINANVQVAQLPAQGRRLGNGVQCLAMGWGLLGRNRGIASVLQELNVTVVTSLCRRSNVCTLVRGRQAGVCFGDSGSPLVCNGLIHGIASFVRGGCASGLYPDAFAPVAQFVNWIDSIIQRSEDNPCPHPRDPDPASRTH
In short: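 Residual activity was taken as the 10 min rate of absorbance rise at 405 nm after adding 0.6 mM MeO-succinyl-AAPV-p-nitroanilide. Curve fitting of activity against concentration gave IC50.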

Intracellular elastase = test: Oral in vivo model using IL-8 induced lung infiltrates for the assessment of intracellular elastase inhibition (hamster test); conditions: effective dose of less than 40 mg/kg, IL-8 intratracheal
In short: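 Fasted adult hamsters (n=4) given compound orally in water, with intratracheal 1 ug recombinant human IL-8; sacrificed 6 h later. Neutrophils from lung lavage and femoral bone marrow sonicated, granules disrupted, and elastase measured, with myeloperoxidase used to normalise for neutrophil recovery.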

IC50 [1]: 73 nM
Compound: CCC[C@@H]1C(=O)N(S(C)(=O)=O)[C@@H]2CCN(C(=O)CCN3CCCCC3)[C@@H]12.Cl [Example 118, (3S,3aS,6aR)-1-Methanesulfonyl-4-(3-piperidin-1-yl-propionyl)-3-propyl-hexahydro-pyrrolo[3,2-b]pyrrol-2-one hydrochloride]
duration of effect (Intracellular elastase): at least 6 hours
